Like-named read-outs stand apart in the source and are kept apart here.
How the values were obtained:
[1] = tested on: adipocytes (3T3-L1) and myotubes (C2C12); assay: Fatty acid oxidation and dose-response screening, cell type not stated; type: cell-based, mouse; conditions: for synergy with leucine or HMB in stimulating fatty acid oxidation: compound at its no-effect concentration with leucine 0.5 mM or HMB 5 μM
C2C12 myotubes = assay: Glucose utilization (extracellular acidification response to glucose) in myotubes; type: cell-based, mouse
[2] = tested on: LDL receptor knockout mice; assay: LDL receptor knockout mice on western diet: plasma lipids, atherosclerosis, macrophage infiltration (Example 7); type: in vivo, mouse
Source text: LDL receptor knockout (LDLRKO) mice were obtained from Jackson Laboratories (Bar Harbor, Me.), and housed in groups under room temperature in a humidity-controlled environment with a regular light and dark cycle. The mice were provided free access to an atherogenic western diet (WD) containing 0.21% cholesterol (by weight) and 40% calories from fat and water for 4 weeks prior to treatment. For treatment, the mice were given (a) the WD diet alone, (b) WD and 24 g of leucine/kg diet, (c) WD and 24 g of leucine/kg diet and 50 mg nicotinic acid/kg diet, (d) WD and 24 g of leucine/kg diet and 250 mg nicotinic acid/kg diet, or (e) WD and 1000 mg nicotinic acid/kg diet; this is approximately equivalent to a low therapeutic dose of nicotinic acid in hypercholesterolemic humans (˜1,500 mg/day). The treatments were administered for eight weeks continuously.
Blood samples of the mice in all groups were obtained from tails of the mice at following four and eight weeks of administration. The serum/plasma levels of triglyceride, total cholesterol and cholesterol esters were measured. Following treatment, food was removed for four hours and the animals were euthanized.
Blood was collected into EDTA-coated tubes to analyze plasma lipid and cholesterol profiles. Plasma total cholesterol (TC, Pointe Scientific, Canton, Mich.), free cholesterol (FC, Wako, Richmond, Va.) and triglyceride (TG, Wako, Richmond, Va.) concentrations were measured using enzymatic assays according to manufacturer's instructions. Cholesterol ester (CE) was calculated as the difference between TC and FC.
To assess atherosclerosis, the circulatory system was perfused following euthanasia with phosphate-buffered saline (PBS) before removing the heart and aorta. The upper one-third of the heart was dissected and embedded in Optimal Cutting Temperature Compound (Sakura Tissue-Tek, Torrance, Calif.), frozen, and stored at −80° C. Blocks were serially cut at 8 μm intervals and stained with hematoxylin and 0.5% Oil Red O (Sigma-Aldrich) to evaluate aortic sinus atherosclerotic intimal area. Atherosclerotic lesion area and Oil Red O positive area were quantified using Image-Pro Plus software (Media Cybernetics, Bethesda, Md.). Whole aorta (from sinotubular junction to iliac bifurcate) was dissected and fixed in 10% formalin, and the adventitia was cleaned. Aortas were opened along the longitudinal axis and pinned onto black silicon elastomer (Rubber-Cal, Santa Ana, Calif.) for the quantification of atherosclerotic lesion area. The percentage of total aortic surface covered with atherosclerotic lesions was quantified by Image-Pro Plus software (Media Cybernetics, Bethesda, Md.) and used to determine the total lesion area.
To assess macrophage infiltration, Sections of aortic sinus were immuno-stained with rat monoclonal antibody against macrophage-specific CD68 (Clone FA11, 1:75, AbD Serotec, Raleigh, N.C.) followed by staining with alkaline phosphatase-conjugated mouse anti-rat (for CD68, 1:50) secondary antibodies (Jackson ImmunoResearch laboratories, West Grove, Pa.). Control slides contain no primary antibody. The CD68-positive areas were analyzed using Image-Pro Plus software (Media Cybernetics, Bethesda, Md.).

Sirt3 = biological target: T1, Sirt3 (Mus musculus, UniProt Q8R104); assay: Sirt3 stimulation; type: cell-based; conditions: leucine 0.5 mM, HMB 5 μM, resveratrol 200 nM
T1 construct: endogenous in cells; host or cells: 3T3-L1 adipocytes and/or C2C12 myotubes (inferred)
T1 sequence (Q8R104 1-334): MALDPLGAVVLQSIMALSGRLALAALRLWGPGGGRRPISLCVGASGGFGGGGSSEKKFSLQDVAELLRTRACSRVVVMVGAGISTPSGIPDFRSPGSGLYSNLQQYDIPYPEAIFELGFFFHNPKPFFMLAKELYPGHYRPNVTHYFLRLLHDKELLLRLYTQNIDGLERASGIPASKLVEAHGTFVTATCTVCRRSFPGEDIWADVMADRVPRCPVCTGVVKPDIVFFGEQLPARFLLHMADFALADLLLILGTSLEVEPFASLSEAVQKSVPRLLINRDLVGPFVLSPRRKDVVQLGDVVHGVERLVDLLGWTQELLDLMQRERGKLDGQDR

[3] = tested on: diet-induced obesity mice; assay: High fat diet-induced obese, insulin resistant mice: GTT, ITT, glucose, insulin, HOMAIR, muscle Western blot (Example 12); type: in vivo, C57/BL6 mice; conditions: HFD, no metformin; for glucose tolerance test (fasting and post-prandial hyperglycemia): Leu 24 g/kg diet with or without Res 12.5 mg/kg diet
Caenorhabditis elegans = assay: Lifespan of C. elegans (Example 10); type: in vivo; conditions: basal conditions; leucine 0.5 mM, nicotinic acid 10 nM
Method: Eggs were hatched on a starved plate overnight. […] All treatments were added with the indicated concentrations to E. coli the agar plates. […] The worms were maintained at 20° C. throughout the duration of the study. Worms were transferred to new plates daily to eliminate progeny. […] The study was continued until the last animal was dead. Data were analyzed via Kaplan-Meier survival curves using Prism 6 (GraphPad Software) and statistical significance was determined by the Log-rank (Mantel-Cox) test.

diabetic db/db mice = conditions: for decrease in blood glucose over the 30 minute linear portion of the insulin tolerance test: insulin 0.75 U/kg
[4] = high dose metformin 300 mg/kg bw

O=C(O)/C=C/c1ccc(O)c(O)c1 [Caffeic acid]
concentrations that exert no effect (dose-response curves; sub-therapeutic dose) ([1]; compound alone): ≤ 1000 nM

O=C(O[C@@H]1Cc2c(O)cc(O)cc2O[C@@H]1c1cc(O)c(O)c(O)c1)c1cc(O)c(O)c(O)c1 [EGCG, epigallocatechin gallate]
direct stimulation of fatty acid oxidation ([1]; compound alone): minimally active | synergy with leucine or HMB in stimulating fatty acid oxidation [1]: do not detect synergistic effects | increase in glucose utilization in myotubes (C2C12 myotubes; extracellular acidification response to glucose, concentrations as in E26): no independent effect

O=c1oc2c(O)c(O)cc3c(=O)oc4c(O)c(O)cc1c4c23 [Ellagic acid]
activity in dose-response curves ([1]; even at high concentrations (50 μM)): little activity

CC(C)Cn1c(=O)n(C)c(=O)c2[nH]cnc21 [IBMX, 3-isobutyl-1-methylxanthine, reference compound]
synergy with leucine or HMB in stimulating fatty acid oxidation [1]: weak but statistically significant synergy with HMB, but not leucine

CC(C)C[C@H](N)C(=O)O [Leucine, leucine]
decrease in aortic macrophage infiltration (CD68 positive area) ([2]; eight weeks, doses as E77): significant independent effect | decrease in atherosclerotic lesion size (lesion and lipid area) ([2]; eight weeks, nicotinic acid 1,000 mg/kg diet, leucine 24 g/kg diet, or leucine + nicotinic acid 50 mg/kg diet, vs western diet alone): exerted an independent effect | decrease in plasma cholesterol esters ([2]; four weeks, doses as E73): no independent effect | decrease in plasma total cholesterol ([2]; four weeks, western diet + nicotinic acid 1,000 mg/kg diet, leucine 24 g/kg diet, or leucine + nicotinic acid 50 or 250 mg/kg diet): no independent effect | increase in insulin-stimulated glucose utilization (C2C12 myotubes; C2C12 myotubes, 5 nM insulin, galegine 5 μM, leucine 0.5 mM): no effect | stimulation of Sirt3 (Sirt3): no independent effects | glucose tolerance test (fasting and post-prandial hyperglycemia) [3]: not significantly affected | glucose tolerance test (fasting and post-prandial hyperglycemia) ([3]; listed as leucine): no independent effect | insulin tolerance test ([3]; Leu 24 g/kg diet): no independent effect | effect on lifespan (Caenorhabditis elegans): no independent effect

OC[C@@H](O)[C@@H](O[C@H]1O[C@H](CO)[C@@H](O)[C@H](O)[C@H]1O)[C@H](O)[C@@H](O)CO [Maltitol]
concentrations that exert no effect (dose-response curves; sub-therapeutic dose) ([1]; compound alone): ≤ 100 nM | synergy with leucine or HMB in stimulating fatty acid oxidation [1]: no synergy

CN(C)C(=N)N=C(N)N [Metformin]
reduction of plasma insulin (diabetic db/db mice; db/db mice, 2 weeks, high dose metformin 300 mg/kg bw (1.5 g/kg diet)): 27% | effect on plasma glucose (diabetic db/db mice; [4]): no significant effect | effects on body composition (diabetic db/db mice; [4]): no significant effects | plasma insulin (diabetic db/db mice; high dose metformin 300 mg/kg bw, control 62): 45 uU/mL | effects on any variable studied (diabetic db/db mice; low dose (150 mg/kg) and very low dose (50 mg/kg) metformin alone): no significant independent effects | decrease in blood glucose over the 30 minute linear portion of the insulin tolerance test (diabetic db/db mice; low or very low dose of metformin, alone or as blend): minimal changes | effect on visceral fat mass (diabetic db/db mice; metformin at any dosage in the absence of HMB): not affected | decrease in blood glucose over the 30 minute linear portion of the insulin tolerance test (diabetic db/db mice; standard metformin dose (1.5 g/kg diet)): ~60 mg/dL

O[C@H]1[C@H](O)[C@@H](O)[C@H](O)[C@@H](O)[C@H]1O [Myo-inositol]
synergy with leucine or HMB in stimulating fatty acid oxidation [1]: no synergy

OC[C@@H](O)[C@@H](O)[C@H](O)[C@@H](O)CO [Sorbitol]
synergy with leucine or HMB in stimulating fatty acid oxidation [1]: no synergy

Cn1c(=O)c2[nH]cnc2n(C)c1=O [Theophylline, reference compound]
concentrations that exert no effect (dose-response curves; sub-therapeutic dose) ([1]; compound alone): below 1 μM

Fucoxanthin
concentrations that exert no effect (dose-response curves; sub-therapeutic dose) ([1]; compound alone): ≤ 100 nM

— patent publication US20180235917A1, “COMPOSITIONS, METHODS AND KITS FOR TREATMENT OF DIABETES AND/OR […]” (NuSirt Sciences, Inc., priority 2014, published 2018)
